# Results reported in ChEMBL document CHEMBL3112457, “Inhibition of hypoxia-inducible factor prolyl hydroxylase domain oxygen sensors: tricking the body into mounting orchestrated survival and repair responses” (J Med Chem, 2013).
# Key:
# Hep 3B2 = assay: Inhibition of prolyl hydroxylase in human Hep3B cells assessed as stimulation of EPO release at 100 uM after 24 hrs relative to control; type: cell-based; parameters: scale not given: the % may be the effect or the level left
# Egl nine homolog 1 [1] = molecular target: T1, Egl nine homolog 1 (Homo sapiens, UniProt Q9GZT9); assay: Inhibition of HIF-PH2 (unknown origin) expressed in insect Hi5 cells using [methoxycoumarin]-DLDLEALAPYIPADDDFQL-amide as substrate at 7.4 uM by [14]CO2 capture assay relative to control; details: BTI-TN-5B1-4
# Target sequence in this assay (Q9GZT9 2-426 limits assumed): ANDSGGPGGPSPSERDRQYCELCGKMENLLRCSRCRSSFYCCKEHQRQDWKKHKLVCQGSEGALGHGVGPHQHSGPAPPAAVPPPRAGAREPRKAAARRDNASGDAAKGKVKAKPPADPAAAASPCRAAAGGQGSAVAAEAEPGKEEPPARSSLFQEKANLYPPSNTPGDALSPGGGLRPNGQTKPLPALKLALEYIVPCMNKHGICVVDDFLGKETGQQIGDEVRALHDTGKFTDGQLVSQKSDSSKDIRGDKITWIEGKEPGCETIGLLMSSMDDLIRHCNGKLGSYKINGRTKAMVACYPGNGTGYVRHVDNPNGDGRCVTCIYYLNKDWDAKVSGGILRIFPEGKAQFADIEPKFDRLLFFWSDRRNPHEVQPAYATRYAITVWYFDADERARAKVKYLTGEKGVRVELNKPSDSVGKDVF
# Egl nine homolog 1 [2] = molecular target: T1, Egl nine homolog 1; assay: Inhibition of PHD2 (unknown origin) using P564 HIFlalpha as substrate after 1 hr by TR-FRET assay
# Target sequence in this assay (Q9GZT9 whole entry): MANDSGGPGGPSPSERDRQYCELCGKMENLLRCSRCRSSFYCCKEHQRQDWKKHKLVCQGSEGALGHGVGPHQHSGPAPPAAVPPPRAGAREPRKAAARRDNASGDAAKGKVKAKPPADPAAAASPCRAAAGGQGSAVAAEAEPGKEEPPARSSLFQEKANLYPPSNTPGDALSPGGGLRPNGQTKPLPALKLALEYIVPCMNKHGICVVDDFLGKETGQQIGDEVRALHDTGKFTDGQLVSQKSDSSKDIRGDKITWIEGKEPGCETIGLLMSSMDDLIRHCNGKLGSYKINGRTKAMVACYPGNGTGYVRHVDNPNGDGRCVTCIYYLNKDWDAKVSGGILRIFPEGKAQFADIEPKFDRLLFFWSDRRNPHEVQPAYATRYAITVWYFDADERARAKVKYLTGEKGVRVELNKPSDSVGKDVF
# Egl nine homolog 1 [3] = molecular target: T1, Egl nine homolog 1; assay: Inhibition of FLAG-tagged full length PHD2 (unknown origin) expressed in Sf9 cells using HIF-1alpha peptide as substrate preincubated for 30 mins followed by substrate addition measured after 2 hrs by HTRF assay in presence of 2-oxoglutarate
# Target sequence in this assay (Q9GZT9 whole entry): as above
# Prolyl hydroxylase EGLN3 [4] = molecular target: T2, Prolyl hydroxylase EGLN3 (Homo sapiens, UniProt Q9H6Z9); assay: Inhibition of 6His-tagged PHD3 (1 to 239) (unknown origin)-mediated Cy5CODD hydroxylation expressed in Escherichia coli preincubated for 3 mins followed by substrate addition measured after 30 mins
# T2 sequence (Q9H6Z9 whole entry): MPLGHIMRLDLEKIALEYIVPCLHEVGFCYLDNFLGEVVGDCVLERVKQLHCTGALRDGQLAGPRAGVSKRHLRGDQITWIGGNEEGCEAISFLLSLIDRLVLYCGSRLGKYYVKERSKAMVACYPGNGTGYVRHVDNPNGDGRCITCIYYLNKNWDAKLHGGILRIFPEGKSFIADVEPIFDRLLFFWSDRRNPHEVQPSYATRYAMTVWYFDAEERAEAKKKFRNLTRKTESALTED
# Prolyl hydroxylase EGLN3 [5] = molecular target: T2, Prolyl hydroxylase EGLN3; assay: Inhibition of PHD3 in human Hep3B cells assessed as stimulation of EPO release after 48 hrs by ELISA; type: cell-based, Hep 3B2
# [6] = Inhibition of prolyl hydroxylase in human Hep3B cells assessed as stimulation of EPO release at 100 uM after 24 hrs by ELISA relative to control; type: cell-based, Hep 3B2
# [7] = Inhibition of human CPH2 assessed as 2-Oxoglutarate conversion to succinic acid after 1 hr by radiometric HPLC analysis
# [8] = Inhibition of human CPH1 assessed as 2-Oxoglutarate conversion to succinic acid after 1 hr by radiometric HPLC analysis
# Prolyl hydroxylase EGLN3 [9] = molecular target: T2, Prolyl hydroxylase EGLN3; assay: Inhibition of full length human recombinant EGLN-3 using DLDLEALAPYIPADDDFQL as substrate after 20 mins by mass spectrophotometric analysis
# Egl nine homolog 1 [10] = molecular target: T1, Egl nine homolog 1; assay: Inhibition of human recombinant EGLN-1 using DLDLEALAPYIPADDDFQL as substrate after 20 mins by mass spectrophotometric analysis
# Target sequence in this assay (Q9GZT9 whole entry): as the sequence (Q9GZT9 whole entry) above
# Prolyl hydroxylase EGLN3 [11] = molecular target: T2, Prolyl hydroxylase EGLN3; assay: Inhibition of 6His-tagged PHD3 (1 to 239) (unknown origin)-mediated Cy5CODD hydroxylation expressed in Escherichia coli after 30 mins
# Homo sapiens [12] = assay: Antianemic activity in human assessed as change in hemoglobin level administered thrice weekly for 12 weeks; type: functional
# Homo sapiens [13] = assay: Reduction in total cholesterol level in chronic kidney disease patient administered for 16 to 24 weeks relative to control; type: functional; parameters: scale not given: the % may be the effect or the level left
# Homo sapiens [14] = assay: Antianemic activity in nondialysis chronic kidney disease patient assessed as increase in hemoglobin level at 60 to 150 mg administered twice/thrice weekly for 16 to 24 weeks; type: functional
# Homo sapiens [15] = assay: Antianemic activity in end stage renal disease patient receiving hemodialysis assessed as increase in hemoglobin level at 1.5 to 2 mg/kg, po administered thrice weekly for 6 weeks relative to control; type: functional; details: dose mg/kg 1.5-2
# Homo sapiens [16] = assay: Antianemic activity in chronic kidney disease patient assessed as hemoglobin level administered for 4 weeks; type: functional
# [17] = Inhibition of prolyl hydroxylase (unknown origin) using biotin-labeled DLDLEMLAPYIPMDDDFQL as substrate after 60 mins by FRET assay; parameters: species or system Homo sapiens
# Egl nine homolog 1 [18] = molecular target: T1, Egl nine homolog 1; assay: Inhibition of HIF-PH2 (unknown origin) expressed in insect Hi5 cells using [methoxycoumarin]-DLDLEALAPYIPADDDFQL-amide as substrate at 22.2 uM by [14]CO2 capture assay relative to control; details: BTI-TN-5B1-4
# Target sequence in this assay (Q9GZT9 2-426 limits assumed): as the sequence (Q9GZT9 2-426 limits assumed) above
# Mus musculus = assay: Suppression of TNBS-induced colitis in mouse assessed as increase in hematocrit at 1 to 5 mg/kg, po after 7 days relative to control; type: functional; details: dose mg/kg 1-5
# Egl nine homolog 1 [19] = molecular target: T1, Egl nine homolog 1; assay: Inhibition of PHD2 in HEK293 cells assessed as VEGF release by immunoassay; type: cell-based
# Target sequence in this assay (Q9GZT9 whole entry): as the sequence (Q9GZT9 whole entry) above
# Homo sapiens [20] = organism: Homo sapiens; assay: Inhibition of prolyl hydroxylase (unknown origin) assessed as stimulation of EPO release by cell-based assay
# Egl nine homolog 1 [21] = molecular target: T1, Egl nine homolog 1; assay: Inhibition of PHD2 (unknown origin)
# Target sequence in this assay (Q9GZT9 whole entry): as above
# Egl nine homolog 1 [22] = molecular target: T1, Egl nine homolog 1; assay: Inhibition of HIF-PH2 (unknown origin) expressed in insect Hi5 cells using [methoxycoumarin]-DLDLEALAPYIPADDDFQL-amide as substrate at 22 uM by [14]CO2 capture assay relative to control; details: BTI-TN-5B1-4
# Target sequence in this assay (Q9GZT9 2-426 limits assumed): as the sequence (Q9GZT9 2-426 limits assumed) above
# Homo sapiens [23] = assay: Antianemic activity in chronic kidney disease patient assessed as increase in hemoglobin level at 6 to 20 mg/kg administered twice weekly for 4 weeks relative to control; type: functional; details: dose mg/kg 6-20
# Homo sapiens [24] = assay: Antianemic activity in chronic kidney disease patient assessed as increase in hemoglobin level at 1250 mg, po administered twice weekly for 15 weeks (reference value: 0.2 g/dl); type: functional
# Homo sapiens [25] = assay: Antianemic activity in chronic kidney disease patient assessed as increase in hemoglobin level at 625 mg, po administered twice weekly for 15 weeks (reference value: 0.2 g/dl); type: functional
# Homo sapiens [26] = assay: Antianemic activity in chronic kidney disease patient assessed as increase in hemoglobin level at 375 mg, po administered twice weekly for 15 weeks (reference value: 0.2 g/dl); type: functional
# Homo sapiens [27] = assay: Antianemic activity in chronic kidney disease patient assessed as increase in hemoglobin level at 1250 mg, po administered twice weekly for 15 weeks measured after 4 weeks relative to control; type: functional
# Homo sapiens [28] = assay: Antianemic activity in chronic kidney disease patient assessed as increase in hemoglobin level at 625 mg, po administered twice weekly for 15 weeks measured after 4 weeks relative to control; type: functional
# Homo sapiens [29] = assay: Antianemic activity in chronic kidney disease patient assessed as increase in hemoglobin level at 375 mg, po administered twice weekly for 15 weeks measured after 4 weeks relative to control; type: functional
# Homo sapiens [30] = assay: Increase in plasma EPO level in human at 20 mg/kg, po administered for 7 days relative to control; type: functional
# Homo sapiens [31] = assay: Increase in plasma EPO level in anephric end stage renal disease patient at 20 mg/kg, po administered for 7 days relative to control; type: functional
# Homo sapiens [32] = assay: Increase in plasma EPO level in nephric end stage renal disease patient at 20 mg/kg, po administered for 7 days relative to control; type: functional
# Homo sapiens [33] = assay: Antianemic activity in chronic kidney disease patient assessed as increase in hemoglobin level at 20 mg/kg, po administered 3 times per week for 4 weeks (reference value: 0.35 g/dL); type: functional
compound,measurement,setting,value
Cc1ccccc1-c1ccc2nc(-n3cc(C(=O)O)cn3)[nH]c(=O)c2c1,Activity,Hep 3B2,60%
O=C(O)CNC(=O)c1c(O)c2cc(Cl)cc(C#Cc3ccccc3)c2sc1=O,inhibition,Egl nine homolog 1 [1],99%
Cn1c(=O)c(C(=O)NCC(=O)O)c(O)c2sccc21,IC50,Egl nine homolog 1 [2],0.003 µM
O=C(O)CNC(=O)c1c(O)c2c(n(CC3Cc4ccccc4C3)c1=O)COC2,IC50,Egl nine homolog 1 [3],< 0.01 µM
COc1ccc(-n2c(=S)[nH]c3cc(C(=O)NCc4ccc(Cl)cc4)sc3c2=O)nc1OC,IC50,Prolyl hydroxylase EGLN3 [4],0.001 µM
same,EC50,Prolyl hydroxylase EGLN3 [5],1 µM
O=C(O)CNC(=O)c1c(O)cc(-c2cc(F)cc(Cl)c2)c2ncnn12,EC50,[6],5.9 µM
O=C(O)CCC(=O)C1=C(O)c2ccc(Cl)cc2C2(CCOCC2)C1=O,IC50,Egl nine homolog 1 [2],< 0.1 µM
Cn1c(=O)c(C(=O)NCC(=O)O)c(O)c2ccc(Br)cc21,IC50,[7],0.111 µM
same,IC50,[8],0.351 µM
O=C(O)CNC(=O)c1ccc(-c2ccc3ccccc3c2)cn1,IC50,Prolyl hydroxylase EGLN3 [9],> 500 µM
same,IC50,Egl nine homolog 1 [10],> 500 µM
O=C(O)CNC(=O)c1c(O)c(C(=O)NCc2ccccc2)c(O)n(Cc2ccccc2)c1=O,EC50,Prolyl hydroxylase EGLN3 [5],0.001 µM
O=C(O)CNC(=O)c1c2ncn(Cc3ccccc3)c2cc2c1ncn2Cc1ccccc1,IC50,Prolyl hydroxylase EGLN3 [4],0.001 µM
N#Cc1ccccc1Cn1c(=O)c(C(=O)NCC(=O)O)c(O)n(Cc2ccccc2)c1=O,EC50,Prolyl hydroxylase EGLN3 [5],0.4 µM
same,IC50,Prolyl hydroxylase EGLN3 [11],0.0008 µM
O=C(Cc1ccc2ccccc2c1)Nc1cnc(-n2cccn2)nc1O,IC50,Egl nine homolog 1 [3],0.0007 µM
Cc1nc(C(=O)NCC(=O)O)c(O)c2ccc(Oc3ccccc3)cc12 [ROXADUSTAT],Activity,Homo sapiens [12],2.1 g/dL
same,Activity,Homo sapiens [13],-20%
same,Activity,Homo sapiens [14],1.4 g/dL
same,Activity,Homo sapiens [15],1 g/dL
same,Activity,Homo sapiens [16],1 g/dL
N#Cc1cn(-c2c[nH]n(-c3cc(N4CC(F)(F)C4)ncn3)c2=O)nn1,IC50,[17],0.07 µM
O=C(O)CNC(=O)c1nc(-c2cn(Cc3ccccc3)nn2)c2snc(-c3ccc(Cl)cc3)c2c1O,inhibition,Egl nine homolog 1 [18],100%
Cn1c(=O)c(C(=O)NCC(=O)O)c(O)c2ccc(-c3cccnc3)nc21,IC50,Egl nine homolog 1 [2],< 0.05 µM
Cn1c(=O)c(C(=O)CCC(=O)O)c(O)c2ccc(Br)cc21,IC50,[7],13 µM
COc1ccc(-n2c(=O)[nH]c3cc(C(=O)NCc4ccc5c(c4)OCO5)sc3c2=O)nc1OC,IC50,Prolyl hydroxylase EGLN3 [4],0.001 µM
same,EC50,Prolyl hydroxylase EGLN3 [5],1 µM
CC(C)(C)OC(=O)N1CCN(Cc2ccn(Cc3ccc(Cl)cc3)c(=O)c2O)CC1 [IZILENDUSTAT],Activity,Mus musculus,2%
same,EC50,Egl nine homolog 1 [19],17 µM
Cc1cccc(CN2CCC3(CC2)C(=O)N(c2ccc(-c4ccccc4)cc2)c2ccc(C(=O)O)cc23)n1,IC50,Egl nine homolog 1 [3],0.0007 µM
O=C(O)CNC(=O)c1ncc(-c2ccc3ccccc3c2)cc1O,IC50,Prolyl hydroxylase EGLN3 [9],0.017 µM
same,IC50,Egl nine homolog 1 [10],0.017 µM
O=C(O)c1cnn(-c2nc3cc(OC(F)(F)F)c(Cl)cc3[nH]2)c1,A50,Homo sapiens [20],50 µM
same,IC50,Egl nine homolog 1 [21],0.1 µM
CC(C)(C)c1ccc(Cn2nc(-c3ccc(Cl)cc3)c(O)c(C(=O)NCC(=O)O)c2=O)cc1,EC50,Prolyl hydroxylase EGLN3 [5],0.4 µM
same,IC50,Prolyl hydroxylase EGLN3 [11],0.0008 µM
O=C(O)CNC(=O)c1c(O)c(-c2cccnc2)cc2nccnc12,IC50,Prolyl hydroxylase EGLN3 [4],0.001 µM
same,EC50,Prolyl hydroxylase EGLN3 [5],0.1 µM
O=C(O)CNC(=O)c1c(O)n2ccccc2nc1=O,EC50,Prolyl hydroxylase EGLN3 [5],> 10 µM
O=C(O)c1cnn(-c2nc(N3CCCC3)c3cc(Oc4ccc(Cl)cc4)ccc3n2)c1,Activity,Hep 3B2,96%
O=C(O)CNC(=O)c1c(O)c(Br)cc2c1ncn2Cc1ccccc1,IC50,Prolyl hydroxylase EGLN3 [4],0.001 µM
CC(C)(C)c1ccc(Cn2c(-c3c(Cl)cccc3Cl)nc(O)c(C(=O)NCC(=O)O)c2=O)cc1,EC50,Prolyl hydroxylase EGLN3 [5],0.4 µM
same,IC50,Prolyl hydroxylase EGLN3 [11],0.0008 µM
COc1ccc(-n2c(=O)[nH]c3cc(C(=O)NCc4ccc(Cl)cc4)ncc3c2=O)nc1OC,IC50,Prolyl hydroxylase EGLN3 [4],0.001 µM
same,EC50,Prolyl hydroxylase EGLN3 [5],1 µM
O=C(O)CNC(=O)c1c(O)c(C(=O)NCc2ccccc2)cn(Cc2ccccc2)c1=O,EC50,Prolyl hydroxylase EGLN3 [5],0.001 µM
O=C(O)CNC(=O)c1c(O)c2c(Cl)c(Cl)c(Cl)n2n(Cc2ccccc2)c1=O,inhibition,Egl nine homolog 1 [22],99%
Cc1c(O)c(C(=O)NCC(=O)O)c(=O)n(Cc2ccccc2)c1C,EC50,Prolyl hydroxylase EGLN3 [5],> 10 µM
O=C(O)CNC(=O)C1=C(O)c2ccc(Cl)cc2C2(CCOCC2)C1=O,IC50,Egl nine homolog 1 [2],< 0.1 µM
COc1ccc(-n2c(=S)[nH]c3sc(C(=O)NCc4ccc(Cl)cc4)c(C)c3c2=O)nc1OC,IC50,Prolyl hydroxylase EGLN3 [4],0.001 µM
same,EC50,Prolyl hydroxylase EGLN3 [5],1 µM
O=C(O)CNC(=O)c1c(O)c2c(n(Cc3ccc(C(F)(F)F)cc3)c1=O)CN(C(=O)C1CC1)C2,IC50,Egl nine homolog 1 [3],< 0.01 µM
O=C(O)CNC(=O)c1c(O)c2cc(-c3ccc(Oc4ccccc4)cc3)ccc2oc1=O,inhibition,Egl nine homolog 1 [1],100%
O=C(O)CNC(=O)c1c(O)c2c(n(Cc3ccc(C(F)(F)F)cc3)c1=O)CSC2,IC50,Egl nine homolog 1 [3],< 0.01 µM
O=C(O)CNC(=O)c1nc(Cl)c2ccccc2c1O,Activity,Homo sapiens [23],1.3 g/dL
same,Activity,Homo sapiens [24],2.4 g/dL
same,Activity,Homo sapiens [25],1.4 g/dL
same,Activity,Homo sapiens [26],1.1 g/dL
same,Activity,Homo sapiens [27],76%
same,Activity,Homo sapiens [28],60%
same,Activity,Homo sapiens [29],50%
same,fold change (FC),Homo sapiens [30],12.7
same,fold change (FC),Homo sapiens [31],14.5
same,fold change (FC),Homo sapiens [32],30.8
same,Activity,Homo sapiens [33],1.9 g/dL
O=C(O)CNC(=O)c1c(O)ccc2cc(-c3ccccc3)cnc12,IC50,Prolyl hydroxylase EGLN3 [4],0.001 µM
O=C(O)CNC(=O)C1=C(O)c2ccccc2C1=O,IC50,Egl nine homolog 1 [2],0.003 µM
O=c1c(-c2cccnc2)c[nH]n1-c1cc(N2CCCCC2)ncn1,IC50,[17],< 30 µM
O=C(O)CNC(=O)c1c(O)c2ccc(F)cc2n(Cc2ccccc2Cl)c1=O,IC50,Prolyl hydroxylase EGLN3 [11],0.02 µM
